Data from US20230293526A1, “METHOD FOR TREATING CANCER WITH A REVERSE TRANSCRIPTASE INHIBITOR” (PrimeFour Therapeutics, Inc., priority 2020, published 2023).

Tests used:
Experiment in all cases: Cell proliferation CellTiterGlo Ex.2
Type in all cases: cell-based
A172 = conditions: Homo sapiens, A 172; A172 (Brain), 72 h
Procedure, shortened: (§1)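 Cells were seeded, incubated overnight at 37 °C, then dosed at 10, 3, 1, 0.3, 0.1, 0.03, 0.01 and 0.003 μM for 72 h (5% or 10% CO2). CellTiterGlo luminescence gave percent viability relative to 0.10% DMSO (high) and 10 μM staurosporine (low) controls.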

A549 = conditions: Homo sapiens; A549 (Lung), 72 h
Procedure, shortened: as §1

BxPC-3 = conditions: Homo sapiens; BxPC-3 (Pancreas), 72 h
Procedure, shortened: as §1

Caki-2 = conditions: Homo sapiens; Caki-2 (Kidney), 72 h
Procedure, shortened: as §1

DLD-1 = conditions: Homo sapiens; DLD-1 (Colon), 72 h
Procedure, shortened: as §1

DU-145 = conditions: Homo sapiens; DU-145 (Prostate), 72 h
Procedure, shortened: as §1

EFM-19 = conditions: Homo sapiens; EFM-19 (Breast), 72 h
Procedure, shortened: as §1

EPLC-272H = conditions: Homo sapiens; EPLC-272H (Lung), 72 h
Procedure, shortened: as §1

H1299 = conditions: Homo sapiens, NCI-H1299; H1299 (Lung), 72 h
Procedure, shortened: as §1

HCC202 = HCC202 (Breast), 72 h
Procedure, shortened: as §1

HCC38 = conditions: Homo sapiens; HCC38 (Breast), 72 h
Procedure, shortened: as §1

Hep3B2.1-7 = Hep3B2.1-7 (Liver), 72 h
Procedure, shortened: as §1

Hs 746T = conditions: Homo sapiens, Hs746T; Hs 746T (Stomach), 72 h
Procedure, shortened: as §1

Ishikawa = conditions: Homo sapiens; Ishikawa (Endometrium), 72 h
Procedure, shortened: as §1

JVM-3 = conditions: Homo sapiens; JVM-3 (Blood), 72 h
Procedure, shortened: as §1

KG-1 a = conditions: Homo sapiens; KG-1 a (Blood), 72 h
Procedure, shortened: as §1

KG-1 = conditions: Homo sapiens; KG-1 (Blood), 72 h
Procedure, shortened: as §1

LN229 = conditions: Homo sapiens, LN-229; LN229 (Brain), 72 h
Procedure, shortened: as §1

LP-1 = conditions: Homo sapiens; LP-1 (Blood), 72 h
Procedure, shortened: as §1

MV4-11 = conditions: Homo sapiens; MV4-11 (Blood), 72 h
Procedure, shortened: as §1

NCI-H2286 = conditions: Homo sapiens; NCI-H2286 (Lung), 72 h
Procedure, shortened: as §1

NCI-H441 = conditions: Homo sapiens; NCI-H441 (Lung), 72 h
Procedure, shortened: as §1

NCI-N87 = conditions: Homo sapiens; NCI-N87 (Stomach), 72 h
Procedure, shortened: as §1

OCI-AML3 = conditions: Homo sapiens, OCI-AML-3; OCI-AML3 (Blood), 72 h
Procedure, shortened: as §1

OV56 = OV56 (Ovary), 72 h
Procedure, shortened: as §1

OVCAR-3 = conditions: Homo sapiens; OVCAR-3 (Ovary), 72 h
Procedure, shortened: as §1

RERF-LC-MS = RERF-LC-MS (Lung), 72 h
Procedure, shortened: as §1

SK-MEL-3 = conditions: Homo sapiens, SK-MEL3; SK-MEL-3 (Skin), 72 h
Procedure, shortened: as §1

SNU-216 = SNU-216 (Stomach), 72 h
Procedure, shortened: as §1

SW480 = conditions: Homo sapiens; SW480 (Colon), 72 h
Procedure, shortened: as §1

T84 = conditions: Homo sapiens; T84 (Colon), 72 h
Procedure, shortened: as §1

T98G = conditions: Homo sapiens; T98G (Brain), 72 h
Procedure, shortened: as §1

U-266 = conditions: Homo sapiens; U-266 (Blood), 72 h
Procedure, shortened: as §1

U118MG = conditions: Homo sapiens, U-118-MG; U118MG (Brain), 72 h
Procedure, shortened: as §1

Compound: C#C[C@]1(CO)O[C@@H](n2cnc3c(=O)[nH]c(N)nc32)C[C@@H]1O [compound 13]
- IC50 (A172): > 10 µM
- IC50 (A549): > 10 µM
- IC50 (BxPC-3): 5.43 µM
- IC50 (Caki-2): > 10 µM
- IC50 (DLD-1): > 10 µM
- IC50 (DU-145): 5.73 µM
- IC50 (EFM-19): 2.65 µM
- IC50 (EPLC-272H): 6.63 µM
- IC50 (H1299): 7.68 µM
- IC50 (HCC202): > 10 µM
- IC50 (HCC38): 6.37 µM
- IC50 (Hep3B2.1-7): 0.82 µM
- IC50 (Hs 746T): 5.39 µM
- IC50 (Ishikawa): 6.07 µM
- IC50 (JVM-3): 2.45 µM
- IC50 (KG-1 a): 5.86 µM
- IC50 (KG-1): > 10 µM
- IC50 (LN229): 2.23 µM
- IC50 (LP-1): 3.15 µM
- IC50 (MV4-11): 0.21 µM
- IC50 (NCI-H2286): 5.69 µM
- IC50 (NCI-H441): 3.64 µM
- IC50 (NCI-N87): 3.6 µM
- IC50 (OCI-AML3): 7.15 µM
- IC50 (OV56): 1.99 µM
- IC50 (OVCAR-3): 1.16 µM
- IC50 (RERF-LC-MS): > 10 µM
- IC50 (SK-MEL-3): > 10 µM
- IC50 (SNU-216): 1.74 µM
- IC50 (SW480): > 10 µM
- IC50 (T84): > 10 µM
- IC50 (T98G): > 10 µM
- IC50 (U-266): > 10 µM
- IC50 (U118MG): 5.74 µM
